Test results as given in patent US10357481B2 (MERCK SHARP & DOHME CORP., priority 2015, dated 2019).

Target: T1, human PDE2A1 (Homo sapiens, UniProt O00408)
T1 construct: GST; purchased BPS Bioscience (San Diego, Calif.) 60020; host or cells: insect cells
Assay: IMAP FP PDE selectivity panel, human PDE2A1
Assay type: biochemical
Settings: Lab B; read-out: Human PDE2 Ki (nM) Lab B
Protocol: Selectivity for PDE2, as compared to other PDE families, was assessed using the IMAP® technology. Human PDE10A2 enzyme was prepared from cytosolic fractions of transiently transfected HEK cells.
Assays for PDE 1 through 11 were performed in parallel at room temperature in 384-well microtiter plates with an incubation volume of 20.2 μL. Solutions of test compounds were prepared in DMSO and serially diluted with DMSO to yield 30 μL of each of ten solutions differing by 3-fold in concentration, at 32 serial dilutions per plate. […] A Labcyte POD 810 (Labcyte, Sunnyvale, Calif.) was used to dispense 200 nL from each well of the titration plate to make eleven copies of the assay plate for each titration, one copy for each PDE enzyme. A solution of each enzyme (dilution from aliquots, sufficient to produce 20% substrate conversion) and a separate solution of FAM-labeled cAMP or FAM-labeled cGMP from Molecular Devices (Sunnyvale, Calif., product # R7506 or cGMP#R7508), at a final concentration of 50 nM were made in the assay buffer (10 mM Tris HCl, pH 7.2, 10 mM MgCl2, 0.05% NaN3 0.01% Tween-20, and 1 mM DTT). Note that the substrate for PDE2 is 50 nM FAM cAMP containing 1000 nM of cGMP. The enzyme and the substrate were then added to the assay plates in two consecutive additions of 10 μL and then shaken to mix. The reaction was allowed to proceed at room temperature for 60 minutes. A binding solution was then made from the kit components, comprised of 80% Solution A, 20% Solution B and binding reagent at a volume of 1/600 the total binding solution. The enzymatic reaction was stopped by addition of 60 μL of the binding solution to each well of the assay plate. The plates were sealed and shaken for 10 seconds. The plates were incubated at room temperature for one hour, then the parallel and perpendicular fluorescence was measured using a Tecan Genios Pro plate reader (Tecan, Switzerland). […] The intrinsic PDE2 inhibitory activity of a compound which may be used in accordance with the present invention may be determined by these assays.

T1 sequence (O00408 1-920 isoform O00408-2): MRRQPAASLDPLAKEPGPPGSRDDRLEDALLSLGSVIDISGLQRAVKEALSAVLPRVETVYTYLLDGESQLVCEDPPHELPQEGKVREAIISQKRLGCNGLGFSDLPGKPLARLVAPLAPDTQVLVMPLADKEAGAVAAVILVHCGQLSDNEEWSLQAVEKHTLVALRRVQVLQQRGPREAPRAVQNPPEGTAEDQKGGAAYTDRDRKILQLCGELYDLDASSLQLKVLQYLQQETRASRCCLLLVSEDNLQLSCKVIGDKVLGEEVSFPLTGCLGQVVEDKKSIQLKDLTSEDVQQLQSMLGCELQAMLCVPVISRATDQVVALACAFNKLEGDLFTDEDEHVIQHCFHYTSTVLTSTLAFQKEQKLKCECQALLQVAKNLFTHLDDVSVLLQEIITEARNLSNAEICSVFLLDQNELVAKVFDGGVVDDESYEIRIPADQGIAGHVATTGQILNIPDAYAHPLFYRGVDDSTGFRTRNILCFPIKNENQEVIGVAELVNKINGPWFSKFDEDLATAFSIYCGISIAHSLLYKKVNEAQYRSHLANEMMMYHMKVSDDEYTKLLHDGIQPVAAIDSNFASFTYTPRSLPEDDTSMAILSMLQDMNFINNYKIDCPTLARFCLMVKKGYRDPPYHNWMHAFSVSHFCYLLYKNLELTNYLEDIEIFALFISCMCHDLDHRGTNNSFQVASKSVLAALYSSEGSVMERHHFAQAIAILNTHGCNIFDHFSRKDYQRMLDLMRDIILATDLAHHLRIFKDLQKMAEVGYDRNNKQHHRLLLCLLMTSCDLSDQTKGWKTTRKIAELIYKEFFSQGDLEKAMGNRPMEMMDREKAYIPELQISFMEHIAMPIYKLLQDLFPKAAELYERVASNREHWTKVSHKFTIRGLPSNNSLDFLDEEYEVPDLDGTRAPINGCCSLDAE

Ki	Structure (SMILES)
7.6 nM	CC(C)(O)C(Nc1cc(C(F)F)nc2ncnn12)c1ccc(C(F)(F)F)c(F)c1 (single isomer, unassigned) [Example 227, (R)- or (S)-1-(5-(Difluoromethyl)-[1,2,4]triazolo [1,5-a]pyrimidin-7-ylamino)-1-(3-fluoro-4-(trifluoromethyl)phenyl)-2-methylpropan-2-ol]
82 nM	Cc1cc(N[C@@H](c2ccc(C(F)(F)F)cc2)[C@@H](C)O)n2ncnc2n1 [Example 89, (1S,2R)-1-[(5-Methyl[1,2,4]triazolo[1,5-a]pyrimidin-7-yl)amino]-1-[4-(trifluoromethyl)phenyl]propan-2-ol]
23 nM	Cc1cc(N[C@@H](c2ccc(C(F)(F)F)c(F)c2)C2(C)CC2)n2ncnc2n1 [Example 43, N-[(R)-[3-Fluoro-4-(trifluoromethyl)phenyl](1-methylcyclopropyl)methyl]-5-methyl[1,2,4]triazolo[1,5-a] pyrimidin-7-amine]
21 nM	Cc1cc(N[C@H](C)c2ccc(SC(F)(F)F)cc2)n2ncnc2n1 [Example 10, 5-Methyl-N-[(1R)-1-{4-[(trifluoromethyl)sulfanyl]phenyl}ethyl][1,2,4]triazolo[1,5-a]pyrimidin-7-amine]
525 nM	Cc1cc(N[C@@](C)(c2ccc(OC(F)(F)F)cc2)C(C)(C)O)n2ncnc2n1 [Example 155, (3S)-2-Methyl-3-[(5-methyl[1,2,4]triazolo[1,5-a]pyrimidin-7-yl)amino]-3-[4-(trifluoromethoxy)phenyl]butan-2-ol]
72 nM	CC(C)(C)c1cc(NC2(c3ccc(C(F)(F)F)c(F)c3)CC2)n2ncnc2n1 [Example 73]
6.6 nM	Cc1cc(N[C@@H](c2ccc(OC(F)(F)F)cc2)C(C)(C)C)n2ncnc2n1 [Example 32, N-{(1R)-2,2-Dimethyl-1-[4-(trifluoromethoxy)phenyl]propyl}-5-methyl[1,2,4]triazolo[1,5-a] pyrimidin-7-amine]
50 nM	CC(C)(O)C(Nc1cc(C(F)(F)F)nc2ncnn12)c1ccc(CC(F)(F)F)cc1 (single isomer, unassigned) [Example 169, (1S or R)-2-Methyl-1-[4-(2,2,2-trifluoroethyl)phenyl]-1-{[5-(trifluoromethyl) [1,2,4]triazolo [1,5-a]pyrimidin-7-yl]amino} propan-2-ol]
45 nM	Cc1cc(N[C@@H](c2ccc(OC(F)F)cc2)C(C)C)n2ncnc2n1 [Example 23, N-{(1R)-1-[4-(Difluoromethoxy)phenyl]-2-methylpropyl}-5-methyl [1,2,4]triazolo[1,5-a]pyrimidin-7-amine]
25 nM	CC(C)(O)C(Nc1cc(C(F)(F)F)nc2ncnn12)c1ccc(OC(F)(F)F)cc1F (single isomer, unassigned) [Example 172, (1R or S)-1-[2-Fluoro-4-(trifluoromethoxy)phenyl]-2-methyl-1-{[5-(trifluoromethyl) [1,2,4]triazolo [1,5-a]pyrimidin-7-yl]amino} propan-2-ol]
421 nM	CC(C)(O)[C@H](Nc1cc(C(F)(F)F)nc2ncnn12)c1ccc(S(F)(F)(F)(F)F)cc1 (single isomer, unassigned) [Example 178]
> 2960 nM	CC(C)(C)c1cc(NC(c2ccc(OC(F)(F)F)cc2F)C(C)(C)O)n2ncnc2n1 (single isomer, unassigned) [Example 149, (1R or S)-1-[(5-tert-butyl[1,2,4]triazolo[1,5-a]pyrimidin-7-yl)amino]-1-[2-fluoro-4-(trifluoro-methoxy)phenyl]-2-methylpropan-2-ol]
4.3 nM	Cc1cc(N[C@@H](c2ccc(OC(F)(F)F)cc2Cl)C(C)(C)O)n2ncnc2n1 [Example 100, (1S)-1-[2-Chloro-4-(trifluoromethoxy)phenyl]-2-methyl-1-[(5-methyl[1,2,4]triazolo[1,5-a]pyrimidin-7-yl)amino]propan-2-ol]
> 2960 nM	Cc1cc(NC(c2ccc3ccccc3c2)C(C)(C)O)n2ncnc2n1 (single isomer, unassigned) [Example 122, (1S or R)-2-Methyl-1-[(5-methyl [1,2,4]triazolo [1,5-a]pyrimidin-7-yl)amino]-1-naphthalen-2-yl propan-2-ol]
78 nM	Cc1cc(NC(C)(C)c2ccc(C(F)(F)F)cc2F)n2ncnc2n1 [Example 52, N-{1-[2-Fluoro-4-(trifluoromethyl)phenyl]-1-methylethyl}-5-methyl [1,2,4]triazolo[1,5-a]pyrimidin-7-amine]
208 nM	CC(C)(C)[C@@H](Nc1cc(CO)nc2ncnn12)c1ccc(C(F)(F)F)c(F)c1 [Example 79, [7-({(1R)-1-[3-Fluoro-4-(trifluoromethyl)phenyl]-2,2-dimethylpropyl}amino)[1,2,4]triazolo[1,5-a]pyrimidin-5-yl]methanol]
167 nM	Cc1cc(NC(c2ccc(OC(F)(F)F)c(F)c2)C2COC2)n2ncnc2n1 (single isomer, unassigned) [Example 230, (S)- or (R)-N-((3-Fluoro-4-(trifluoromethoxy)phenyl)(oxetan-3-yl)methyl)-5-methyl-[1,2,4]triazolo [1,5-a]pyrimidin-7-amine]
342 nM	Cc1cc(NC(C)(C)c2ccc(C(F)(F)F)cc2C)n2ncnc2n1 [Example 54, 5-Methyl-N-{1-methyl-1-[2-methyl-4-(trifluoromethyl)phenyl]ethyl}[1,2,4]triazolo[1,5-a] pyrimidin-7-amine]
4.4 nM	CC(C)(O)C(Nc1cc(C(F)(F)F)nc2ncnn12)c1ccc(SC(F)(F)F)cc1 (single isomer, unassigned) [Example 222, (S)- or (R)-2-Methyl-1-(5-(trifluoromethyl)-[1,2,4]triazolo [1,5-a]pyrimidin-7-ylamino)-1-(4-(trifluoromethylthio)phenyl)propan-2-ol]
1690 nM	COc1cc(N[C@@H](c2ccc(C(F)(F)F)c(F)c2)C(C)(C)O)n2ncnc2n1 (single isomer, unassigned) [Example 237]
612 nM	CC(C)(O)C(Nc1cc(Cl)nc2ncnn12)c1ccc(C(F)(F)F)c(F)c1 (single isomer, unassigned) [Example 224, (S)- or (R)-1-(5-Chloro-[1,2,4]triazolo [1,5-a]pyrimidin-7-ylamino)-1-(3-fluoro-4-(trifluoromethyl)phenyl)-2-methylpropan-2-ol]
2.1 nM	Cc1cc(N[C@@H](c2ccc(SC(F)(F)F)cc2)C(C)(C)C)n2ncnc2n1 [Example 29, N-[(1R)-2,2-Dimethyl-1-{4-[(trifluoromethyl)sulfanyl]phenyl}propyl]-5-methyl[1,2,4]triazolo[1,5-a] pyrimidin-7-amine]
292 nM	Cc1cc(N[C@@H](c2ccc(C(F)(F)F)c(F)c2)C(C)(C)C)n2ncnc2c1 [Example 264, (R)—N-{1-[3-Fluoro-4-(trifluoromethyl)phenyl]-2,2-dimethylpropyl}-7-methyl-[1,2,4]triazolo[1,5-a]pyridin-5-amine]
115 nM	Cc1cc(N[C@H](C)c2ccc(C(F)(F)F)c(F)c2)n2ncnc2n1 [Example 3, N-{(1R)-1-[3-Fluoro-4-(trifluoromethyl)phenyl]ethyl}-5-methyl[1,2,4]triazolo[1,5-a] pyrimidin-7-amine]
> 2960 nM	CC(C)(O)C(Nc1cc(C(F)(F)F)nc2ncnn12)c1ccc(CC(F)(F)F)cc1 (single isomer, unassigned) [Example 170, (1R or S)-2-Methyl-1-[4-(2,2,2-trifluoroethyl)phenyl]-1-{[5-(trifluoromethyl) [1,2,4]triazolo [1,5-a]pyrimidin-7-yl]amino} propan-2-ol]
> 2960 nM	CC(C)(O)C(Nc1cc(C(F)(F)F)nc2ncnn12)c1ccc(SC(F)(F)F)cc1 (single isomer, unassigned) [Example 221, (R)- or (S)-2-Methyl-1-(5-(trifluoromethyl)-[1,2,4]triazolo [1,5-a]pyrimidin-7-ylamino)-1-(4-(trifluoromethylthio)phenyl)propan-2-ol]
15 nM	Cc1cc(NC(c2ccc(CC(F)(F)F)cc2)C(C)(C)O)n2ncnc2n1 (single isomer, unassigned) [Example 119, (1R or S)-2-Methyl-1-[(5-methyl [1,2,4]triazolo [1,5-a]pyrimidin-7-yl)amino]-1-[4-(2,2,2-trifluoroethyl)phenyl]propan-2-ol]
335 nM	CC(C)(C)[C@@H](Nc1cc(O)nc2ncnn12)c1ccc(C(F)(F)F)c(F)c1 [Example 238, (R)-7-(1-(3-Fluoro-4-(trifluoromethyl)phenyl)-2,2-dimethylpropylamino)-[1,2,4]triazolo[1,5-a]pyrimidin-5-ol]
~1180 nM	COCc1cc(N[C@H](C)c2ccc(C(F)(F)F)c(F)c2)n2ncnc2n1 [Example 77, N-{(1R)-1-[3-Fluoro-4-(trifluoromethyl)phenyl]ethyl}-5-(methoxymethyl)[1,2,4]triazolo [1,5-a]pyrimidin-7-amine]
